{
  "source": "patent US20120107903A1",
  "about": "(priority 2010, published 2012)",
  "key": {"[1]": {"biological_target": "Ralstonia pickettii 12D FAD dependent oxidoreductase, wild type, SEQ ID NO:9 (Ralstonia pickettii, UniProt A0ABM9ITV6)"}, "[2]": {"biological_target": "Ralstonia solanacearum IPO1609 transmembrane dehydrogenase, wild type, SEQ ID NO:10 (Ralstonia solanacearum, UniProt A0ABF7REW7)"}, "[3]": {"biological_target": "Burkholderia cenocepacia J2315 putative oxidoreductase (SEQ ID NO:7), variant QYY, S326Q/S365Y/A472Y (Burkholderia cenocepacia, UniProt B4ELB3, A472Y/S326Q/S365Y)", "format": "biochemical", "conditions": "read-out: Km (Mal)"}, "[4]": {"system": "OC[C@H]1OC(O)[C@H](O)[C@@H](O)[C@@H]1O", "assay": "cells, lysate or membranes named"}, "[5]": {"system": "OC[C@H]1O[C@H](O[C@H]2[C@H](O)[C@@H](O)C(O)O[C@@H]2CO)[C@H](O)[C@@H](O)[C@@H]1O", "assay": "cells, lysate or membranes named", "conditions": "pH 7.0"}, "[6]": {"biological_target": "Burkholderia cepacia KS1 glucose dehydrogenase (α-subunit SEQ ID NO:3), variant QYA (QY), 326Gln+365Tyr (Burkholderia cepacia, UniProt Q8GQE7, S326Q/S365Y)", "format": "biochemical", "conditions": "pH 7"}, "[7]": {"biological_target": "Ralstonia pickettii 12D FAD dependent oxidoreductase (SEQ ID NO:9), variant QYY, S327Q/S366Y/A473Y (Ralstonia pickettii, UniProt A0ABM9ITV6, A473Y/S327Q/S366Y)", "format": "biochemical"}, "[8]": {"biological_target": "Burkholderia cepacia KS1 glucose dehydrogenase (α-subunit SEQ ID NO:3), variant QYY, 326Gln+365Tyr+472Tyr (Burkholderia cepacia, UniProt Q8GQE7, A472Y/S326Q/S365Y)", "format": "biochemical", "conditions": "pH 7"}, "[9]": {"biological_target": "Burkholderia thailandensis TXDOH hypothetical protein BthaT_07876 (SEQ ID NO:8), variant QYY, S324Q/S363Y/A470Y (Burkholderia thailandensis, UniProt Q2T5D8, A470Y/S324Q/S363Y)"}, "[10]": {"biological_target": "Burkholderia cepacia KS1 glucose dehydrogenase (α-subunit SEQ ID NO:3), variant QYR, 326Gln+365Tyr+472Arg (Burkholderia cepacia, UniProt Q8GQE7, A472R/S326Q/S365Y)", "format": "biochemical", "conditions": "pH 7"}},
  "data": [
    {"molecule": "OC[C@H]1O[C@H](O[C@H]2[C@H](O)[C@@H](O)C(O)O[C@@H]2CO)[C@H](O)[C@@H](O)[C@@H]1O", "note": "(some centres unmarked) [Mal, maltose]", "values": [
      {"measurement": "Vmax (Mal)", "setting": "[1]", "result": 0.94, "unit": "U/mL"},
      {"measurement": "Vmax (Mal)", "setting": "[2]", "result": 0.14, "unit": "U/mL"},
      {"measurement": "Km", "setting": "[3]", "result": "> 100000", "unit": "µM"}
    ]},
    {"molecule": "(Burkholderia cepacia)", "values": [
      {"measurement": "Km", "setting": "[4]; pH 7.5", "result": 1350, "unit": "µM"},
      {"measurement": "Vmax", "setting": "[4]; pH 7.5", "result": 100, "unit": "µmol/min/mg"}
    ]},
    {"molecule": "(Burkholderia cenocepacia J2315)", "values": [
      {"measurement": "Km", "setting": "[4]; pH 7.0", "result": 110, "unit": "µM"},
      {"measurement": "Vmax", "setting": "[4]; pH 7.0", "result": 2.05, "unit": "U/mL"},
      {"measurement": "Km", "setting": "[5]", "result": 1300, "unit": "µM"},
      {"measurement": "Vmax", "setting": "[5]", "result": 1.87, "unit": "U/mL"}
    ]},
    {"molecule": "OC[C@H]1OC(O)[C@H](O)[C@@H](O)[C@@H]1O", "note": "(some centres unmarked) [Glucose, glucose]", "values": [
      {"measurement": "Vmax (Glc.)", "setting": "[6]", "result": "Vmax (Glc.) = 149.3 U/mg protein"},
      {"measurement": "Vmax (Glc)", "setting": "[7]", "result": 1.62, "unit": "U/mL"},
      {"measurement": "Vmax (Glc.)", "setting": "[8]", "result": "Vmax (Glc.) = 131.6 U/mg protein"},
      {"measurement": "Vmax (Glc)", "setting": "[9]", "result": 48.8, "unit": "U/mL"},
      {"measurement": "Vmax (Glc.)", "setting": "[10]", "result": "Vmax (Glc.) = 93.5 U/mg protein"},
      {"measurement": "Vmax (Glc)", "setting": "[2]", "result": 0.14, "unit": "U/mL"}
    ]},
    {"molecule": "(Ralstonia pickettii)", "values": [
      {"measurement": "Km", "setting": "[5]", "result": 2020, "unit": "µM"}
    ]},
    {"molecule": "(Ralstonia solanacearum IPO1609)", "values": [
      {"measurement": "Km", "setting": "[5]", "result": 2640, "unit": "µM"}
    ]}
  ]
}
